What was measured:
[1] = tested on: HCV replicon cell line (Huh-7); experiment: Alamar Blue cytotoxicity assay step; assay type: cell-based
[2] = tested on: HCV replicon cell line (HCV RNA); experiment: Quantitative RT-PCR of HCV RNA in the HCV replicon cell line
[3] = tested on: HCV replicon cell line (NS3 protein); experiment: Western analysis of NS3 protein in the HCV replicon cell line; assay type: cell-based, Hepatitis C virus
Experimental: Experiments were done in duplicate. Western analysis was performed according to the instructions for Amershams Chemiluminescence Immunology Kit (NEL105 Renaissance) using a Molecular Dynamics Storm 860 phosphoimager and associated software. The primary and secondary antibody dilutions were at 1 to 5,000. Antisera was generated by immunizing rabbits with purified NS3 protease made from an E. Coli expression vector encoding the first 181 amino acids of HCV 1a NS3 with subsequent boosts.
Bleeds were tested weekly and boosts continued until a positive signal on a control western was seen. Secondary antibody was a BioRad (#170–6515) Goat anti-Rabbit IgG HRP Conjugate. The protein samples for western analysis were from the same wells used for the FRET assay and were prepared by the addition of an equal volume of 2×SDS-PAGE buffer to the FRET assay mixture, heating and loading on a 10% gel for SDS-PAGE. Interferon alpha (IFN-α) was obtained from Sigma (#I-4276) and stored as recommended.

[4] = tested on: HCV replicon cell line (NS3 protease activity); experiment: HCV replicon FRET assay (NS3 protease activity as indirect measure of HCV RNA replication)
Experimental: The HCV replicon cell line was isolated from colonies as described by Lohman et al. al. (Lohman, supra) and used for all experiments.
These cell lines were maintained at 37° C., 5% CO2, 100% relative humidity in DMEM (Life Technologies #11965-084) with 10% heat inactivated calf serum (Sigma #F-2442), 100 U/ml of penicillin/streptomycin (Life Technologies #15140-122), Geneticin at 1 mg/ml (Life Technologies #10131-027). One of the cell lines which had approximately 3,000 copies of HCV replicon RNA/cell was used for development of the assay.
To perform the HCV FRET screening assay, 96-well cell culture plates were used.
The assay reagent was made as follows: 5× cell Luciferase cell culture lysis reagent from Promega (#E153A) diluted to 1× with dH2O, NaCl added to 150 mM final, the FRET peptide diluted to 20 uM final from a 2 mM stock. Cells were trypsinized, placed into each well of a 96-well plate and allowed to attach overnight. The next day, the test compounds were added to columns 1 through 10; column 11 was media only, and column 12 contained a titration of interferon as a control (1000 units for A12, B12, 100 units for C12, D12, 10 units for E12, F12 and 1 unit for G12, H12). In addition, replicon cells in A12, B12 can be replaced, if desired, with naïve Huh-7 cells as a negative background control. The plates were then placed back in the incubator.
Subsequent to addition of the test compounds described above (FRET Assay Preparation), at various times the plate was removed and Alamar Blue solution (Trek Diagnostics, #00–100) was added per well as a measure of cellular toxicity.
Compound analysis was determined by quantification of the relative HCV replicon inhibition and the relative cytotoxicity values.

[5] = FIG. 6A, titration 0.1 to 1,000 units per milliliter, 96 hours of incubation
[6] = interferon titration in HCV replicon cell line

With interferon-α [IFN-α] the “cytotoxicity (Alamar Blue)” value ([1]; highest concentration of IFN-α, 1000 units, FIG. 7B wells A12 and B12) was “Approximately 18%”, the “cytotoxicity (Alamar Blue), in words” value ([1]; lower concentrations of IFN-α (below 1000 units)) was “no apparent Alamar Blue staining change” and the “EC50, RT-PCR” value [2, 5] was 5.3 units of IFN-α per milliliter. The “EC50, qRT-PCR assay” value [2, 6] was 5.3 units, the “EC50, Western” value [3, 5] was 1.9 units of IFN-α per milliliter and the “EC50, western assay” value [3, 6] was 1.9 units. For the same substance, the “EC50, FRET” value [4, 5] was 2.9 units of IFN-α per milliliter, the “EC50, FRET assay” value [4, 6] was 2.9 units and the “EC50 in IFN-α control samples of the compound plate, in words” value ([4]; random compound plate control titration 1000, 100, 10, 1 units, FIG. 7A) was “close to or slightly lower than the lowest concentration of IFN-α used”.
